Source: patent US20060172941A1, “Anti-angiogenic peptides and methods of use thereof” (priority 2004, published 2006)
“Also recorded” adds a separate entry of the source. Where no end group is shown, it is not given here. [ ]: non-standard residue; d: D form.

Legend:
[1] = tested on: L1210 murine leukemia cells; assay: L1210 murine leukemia intravenous model, survival; assay type: in vivo, mouse; conditions: dosed IP, FIG. 15a
Method: Antitumor activity of test peptides, administered intraperitoneally (IP), were evaluated against L1210 murine leukemia cells implanted intravenously (IV) in DBA/2 mice.
Studies generally consisted of randomly-assigned groups of 8 mice per group, which were inoculated IV with 1×10^5 cells per mouse from an in vivo leukemia cell line. In addition to groups tested with test peptides, studies usually included a vehicle-treated control group and a positive control group treated with an agent known to be active in the L1210 leukemia model. Starting one day after tumor inoculation (inoculation day defined as Day 0), mice were treated IP with either vehicle or test peptides in various schedules. Generally this consisted of treatment every other day for approximately 1 week (e.g., Days 1, 3, 5 and 7). A positive agent (e.g., cyclophosphamide) was usually given as a single IP injection on Day 1. All dosing solutions were prepared on each day of treatment. Survival was monitored daily and body weights were measured twice weekly. Anti-tumor activity was assessed by the increase in lifespan of the treated groups in comparison to the vehicle-treated control group. Studies with the L1210 leukemia model were limited to 30 days.

[2] = tested on: Human Umbilical Vein Endothelial Cells; assay: bFGF-mediated survival/proliferation of human umbilical vein endothelial cells (WST1); assay type: cell-based; conditions: FIG. 6, 9, 10, 17
Method: (§1) The anti-angiogenic activities of the peptides were tested by measuring the level of inhibition of VEGF and bFGF mediated survival/proliferation of Bovine Retinal Endothelial Cells (BRE), Human Dermal Microvasculature Endothelial Cells, and Human Umbilical Vein Endothelial Cells, all of which are standard cell lines used to test anti-angiogenic compounds.
Human umbilical cord endothelial (HUVEC) cells were maintained in Cambrex EGM-2MV media. On day one, cells were starved overnight in 1% FBS in M200 media (Cascade Biologicals). The morning after, the media were replaced with serum-free media (control) or media containing 25 ng/ml of human VEGF165 and the various peptides to final concentrations as described.
(§2) In all cases, after 72 hours incubation, the amount of live cells in each well was measured with the WST1 assay (Roche).

tumor cells = assay: Ability to induce tumor cell death (general statement); assay type: cell-based
Method: Peptides to be tested were prepared at a stock concentration of 10 mM in sterile phosphate buffered saline. Cancer cell lines obtained from the American Type Culture Collection (MG-63, HT1080, A498, BxPC3, 786-0, PC-3, B16F1, B16F10, P388D1, Jurkat, MOLT4, THP-1, U-937, L1210, RPMI 8226, NCI H929, U266B1, K562) were cultured under appropriate conditions as described in the literature. Cell culture media and reagents were obtained from ATCC (Manassas, Va.), Invitrogen (Carlsbad, Calif.) or Mediatech (Herndon, Va.). Exponentially growing cultures were used for cell proliferation assays. […] After incubation, the relative number of cells was determined using WST-1 (Roche Applied Science). […] The plate was immediately read at 440 nm using a Bio-Tek PowerWave XS microplate reader, incubated for 2-3 hours at 37° C. and then read again. Cell proliferation was determined as the percent of the control cell proliferation. The absorbance of each well at time 0 was subtracted from the value of the final reading. […] Finally, each test absorbance was divided by the average of the control absorbances and multiplied by 100 to obtain the percent of control.

L1210 = assay: Tumor cell proliferation (WST-1), L1210; assay type: cell-based, mouse; conditions: FIG. 11
Method: Peptides to be tested were prepared at a stock concentration of 10 mM in sterile phosphate buffered saline. Cancer cell lines obtained from the American Type Culture Collection (MG-63, HT1080, A498, BxPC3, 786-0, PC-3, B16F1, B16F10, P388D1, Jurkat, MOLT4, THP-1, U-937, L1210, RPMI 8226, NCI H929, U266B1, K562) were cultured under appropriate conditions as described in the literature. Cell culture media and reagents were obtained from ATCC (Manassas, Va.), Invitrogen (Carlsbad, Calif.) or Mediatech (Herndon, Va.). Exponentially growing cultures were used for cell proliferation assays. Adherent cells were plated at a concentration of 100000 cells per milliter in growth media overnight (18-24 h) and treated the next day in a low serum media (growth media with 1% FBS for MG-63, HT1080, A498, BxPC3, PC-3, B16F1, B16F10. 786-0 cells were treated in media with 5% FBS). Suspension cell lines (P388D1, Jurkat, MOLT4, THP-1, U-937, L1210, RPMI 8226, NCI H929, U266B1, and K562) were diluted to a concentration of 100,000 cells per ml and treated on the same day with peptides. Peptides were diluted in treatment media and cells were treated for 48 or 72 hours depending on the cell line. Each dose was tested in triplicate for each experiment, and experiments were repeated for a minimum of three discrete times. After incubation, the relative number of cells was determined using WST-1 (Roche Applied Science). A 9.5 μl aliquot of WST-1 was added to each well. The plate was immediately read at 440 nm using a Bio-Tek PowerWave XS microplate reader, incubated for 2-3 hours at 37° C. and then read again. Cell proliferation was determined as the percent of the control cell proliferation. The absorbance of each well at time 0 was subtracted from the value of the final reading. Afterwards the blank values were averaged and subtracted from each test and control value. Finally, each test absorbance was divided by the average of the control absorbances and multiplied by 100 to obtain the percent of control. […]

[3] = Heparin binding activity, Hi Trap Heparin HP column, NaCl step elution; conditions: for [NaCl] for elution: heparin column, step gradient in 10 mM NaH2PO4 pH 7
From the text: Liquid chromatography was used to determine the relative levels of heparin binding activity of the individual heparin binding domains and of the anti-angiogenic miniproteins that contains them. In this assay, the strength of the heparin binding activity is proportional to the amount of NaCl that is required to elute the peptide bound to the heparin column. Peptides with low binding activity are eluted with lower NaCl concentration, whereas higher concentrations of NaCl are required for peptides with higher binding activity.
Hi Trap Heparin HP column (1 ml, Amersham Biosciences) was equilibrated with 10 column volumes (CV) of equilibration (EQ) buffer=10 mM NaH2PO4 pH 7. All buffers were loaded onto columns via syringes. 500 μl fractions are collected (flow rate=1 ml/minute). 500 μg of peptide (1 mg/ml, resuspended in EQ buffer) was added to each column and the flow through was collected for analysis. The columns were then washed with 3 CV of EQ buffer. Peptides are then eluted with a step gradient of 500, 625, 750, 875 mM NaCl in EQ buffer, 2 CV per each step. A final step of 3 CV of 1000 mM NaCl in EQ buffer was collected in 500 μl fractions. The A210 nm was measured using EQ and elution buffers as blanks.

[4] = tested on: RPMI-8226 human myeloma xenografts; assay: RPMI-8226 human myeloma subcutaneous xenograft model; assay type: in vivo, mouse; conditions: scid mice, FIG. 16
Method: Anti-tumor efficacy of test peptides was evaluated against RPMI-8226 human myeloma xenografts implanted subcutaneously (sc) in severe compromised immunodeficient (scid) mice.
Studies generally consisted of randomly-assigned groups of 8 or 10 mice per group, which were implanted sc with myeloma fragments (30-40 mg). In addition to groups tested with test peptides, studies usually included a vehicle-treated control group and a positive control group treated with an agent known to be active in the RPMI-8226 model. In one type of schedule, mice were treated IP with either vehicle or test peptides starting one day after tumor implantation (implantation day defined as Day 0). Test peptides and vehicle were generally administered IP daily for 3-4 weeks.
Dosing solutions of the test peptides were prepared weekly and kept at −20° C. between injections. […] Each tumor was measured by caliper in two dimensions and converted to tumor mass using the formula for a prolate ellipsoid (a X b^2/2), where a is the longer dimension and b is the smaller dimension, and assuming unit density (1 mm^3=1 mg). Tumor measurements were recorded twice weekly. Body weights were also recorded twice weekly. Anti-tumor activity was assessed by the delay in tumor growth of the treated groups in comparison to the vehicle-treated control group, partial and complete regressions, and tumor-free survivors. […]

[5] = tested on: Human Dermal Microvasculature Endothelial Cells; assay: bFGF-mediated survival/proliferation of human dermal microvasculature endothelial cells; assay type: cell-based; conditions: 30, 100, and 200 μg/ml, FIG. 8
Method: as §1, §2
(§3) In a further experiment, the anti-angiogenic activity of peptide ST100,061 (SEQ ID NO.: 3), a derivative of ST100,032 (SEQ-ID NO.: 1), at concentrations of 30, 100, and 200 μg/ml was tested by measuring the level of inhibition of VEGF and bFGF mediated survival/proliferation in human dermal microvasculature endothelial cells.

[6] = tested on: Human Dermal Microvasculature Endothelial Cells; assay: VEGF-mediated survival/proliferation of human dermal microvasculature endothelial cells; assay type: cell-based; conditions: 30, 100, and 200 μg/ml, FIG. 8
Method: as §1, §2, §3

B16-F1 melanoma cells = assay: Subcutaneous B16 melanoma tumor growth in vivo; parameters: species or system mouse; conditions: 20 mg/kg daily IP; for Inhibition of tumor growth: vs untreated controls, FIG. 12 and 14
Method: Because of the importance of the angiogenic process for tumorigenesis, miniproteins as described herein, were hypothesized to show good anti-tumor activity. The peptides of the invention were tested in an in vivo model of anti-tumor activity. This model compares the growth of subcutaneous B16 melanoma tumor in vivo either untreated or treated with various amount of miniproteins described in this application. This model is widely accepted in the art as a model to test the anti-tumor activity of compounds that inhibit tumor growth because they have anti-angiogenic activity.
Male C57BL/6 mice were obtained with a mean body weight of 20±2 g. Mouse B16-F1 melanoma cells were implanted subcutaneously (5×10^5 cell per animal). Peptides (formulated in water) were administered ip daily at the amount indicated starting the day after cells injection. In general, tumors became palpable around 9 days after injection of cells. Tumor were then measured every 2 days.

[7] = tested on: Bovine Retinal Endothelial Cells (BRE); assay: VEGF-mediated survival/proliferation of bovine retinal endothelial cells (WST1); assay type: cell-based; conditions: VEGF 25 ng/ml, 72 hours, FIG. 4 and 5
Method: as §1
Bovine retinal endothelial (BRE) cells were maintained in Cambrex EG2 media. For non-adherent cell assays, on day one cells were starved for either 6 hours or overnight, then trypsinized and plated in 96-well plates in 100 μl of Optimem plus 1% fetal bovine serum (FBS). One hundred μl of Optimem plus 1% FBS was added to the wells containing, where appropriate, VEGF to a final concentration of 25 ng/ml, and the various peptides to final concentrations as described. For adherent cells, cells were plated in 96-well plates in complete media, allowed to adhere overnight, washed in starvation media (Optimem plus 1% FBS) and then starved during the day. At the end of the day, 100 μl of Optimem plus 1% FBS was added to the wells containing, where appropriate, VEGF to a final concentration of 25 ng/ml and the various peptides to final concentrations as described.
as §2

[8] = Biological activity of D-amino acid versions of ST100,038 (test not specified); conditions: tested against a control
Method: D-amino acid peptides can be made by generating a D-amino acid peptide with the same sequence as a L-amino acid peptide or by preparing a retro inverso form of a peptide. ST100,045 (SEQ ID NO.: 31) has the same sequence as ST100,038 (SEQ ID NO.: 29) was tested against ST100,059 (SEQ ID NO.: 30) which is the retro inverso version of ST100,038 and a control.

| [NaCl] for elution [3] [mM] | Sequence | Inhibition of bFGF-mediated survival [2] | Inhibition of proliferation of mouse leukemia L1210 cells (L1210) | Inhibition of tumor growth (B16-F1 melanoma cells) | biological activity [8] | further results |
| --- | --- | --- | --- | --- | --- | --- |
| – | PYDGRGDSVVYGLRKKKAARGRRAARGRR (listed as Homo sapiens) [ST100,061] | – | – | may be less active | – | Inhibition of bFGF mediated survival/proliferation [5]: effective in inhibiting both VEGF and bFGF; Inhibition of VEGF mediated survival/proliferation [6]: effective in inhibiting both VEGF and bFGF |
| – | RLGYVVSDGRGDYP (listed as Homo sapiens) [ST100,077] | – | Neither ST100,077 (SEQ ID NO.: 16) encoding the integrin binding domain or ST100,078 (SEQ ID NO.: 17) encoding the heparin binding domain or the simple combination of the two peptides (ST100,077 and ST100,078) blocked cell proliferation or induced cell death | – | – | – |
| 875 | RRGRAARRGRAAKKK (listed as Homo sapiens) [ST100,078] | not as potent | Neither ST100,077 (SEQ ID NO.: 16) encoding the integrin binding domain or ST100,078 (SEQ ID NO.: 17) encoding the heparin binding domain or the simple combination of the two peptides (ST100,077 and ST100,078) blocked cell proliferation or induced cell death | – | – | – |
| 0 | PSQSSHPPLSTA ([dP][dS][dQ][dS][dS][dH][dP][dP][dL][dS][dT][dA]; listed as Homo sapiens) [ST100,059, retro inverso version of ST100,038] | – | – | clearly inhibit tumor growth | biologically active | Inhibition of VEGF-mediated survival/proliferation [7]: VEGF stimulation was inhibited with increasing doses; Inhibition of tumor growth ([4]; 100 mg/kg daily IP): does not inhibit tumor growth; P (ANOVA) of tumor growth inhibition (B16-F1 melanoma cells; FIG. 12): < 0.05 |
| – | ATSLPPHSSQSP (also: D-amino acids noted, form not shown; listed as Homo sapiens) [ST100,045] | – | – | – | Only the retro inverso form of ST100,038, (ST100,059; SEQ ID NO.: 30) was found to be biologically active | – |

| Sequence | [NaCl] for elution [3] [mM] | Inhibition of bFGF-mediated survival [2] | Inhibition of proliferation of mouse leukemia L1210 cells (L1210) | Inhibition of tumor growth (B16-F1 melanoma cells) | biological activity [8] | further results |
| --- | --- | --- | --- | --- | --- | --- |
| RRGRAARRGRAAKKKRLGYVVSDGRGDYP [ST100,064, retro-inverso form of ST100,061] | 875 | can inhibit bFGF mediated survival as effectively as ST100,061; also recorded: the most active in inhibiting bFGF stimulation | able to block cell proliferation and induce cell death | – | – | Survival ([1]; DBA/2 mice): statistically significant increases in survival; mice (cured mice) that survived longer than 30 days [1]: Sixty to eighty; ability to induce tumor cell death (comparison in words) (tumor cells): much more active; heparin binding activity (comparison in words) [3]: much more active; also recorded: bind less strongly than ST100,082; Inhibition of tumor growth ([4]; 25 mg/kg daily IP): able to inhibit tumor growth |
